From patent US9499519B2, “Fused pyrimidine compounds and use thereof” (Medivation Technologies, Inc., priority 2012, dated 2016)

Assays:
Trk C = Trk C (Homo sapiens, UniProt Q16288); test: HotSpot kinase assay: Trk C; type: biochemical; conditions: 100 nM compound; HotSpot; read-out: % Enzyme Inhibition @ 100 nM Trk C
Description: (§1) Each compound was tested at a concentration of 0.1 μM in single duplicate mode against the 3 kinases. Compounds were prepared as 10 mM stock solutions in DMSO prior to use in the assay. […] IC50 values and curve fits were obtained using Prism (GraphPad Software).
(§2) The screening was performed using the “HotSpot” assay platform. The assay measures the conversion of a peptide substrate to ^33P-labelled phosphorylated product. Briefly, specific kinase/substrate pairs along with required cofactors were prepared in reaction buffer. Specifically, the substrate was prepared in reaction buffer (20 mM Hepes, pH 7.5; 10 mM MgCl2; 1 mM EGTA; 0.02% Brij35; 0.02 mg/mL BSA; 0.1 mM Na3VO4; 2 mM DTT; 1% DMSO), followed by delivery of any required cofactor to the resulting substrate solution. The corresponding kinase was delivered into the substrate solution and the reaction mixture was mixed gently. Compound was delivered into the reaction mixture, followed 15-20 minutes later by addition of a mixture of ATP (Sigma, St. Louis Mo.) and ^33P ATP (specific activity 0.01 μCi/μL final; Perkin Elmer, Waltham, Mass.) to a final concentration of 10 μM-30 μM to initiate the reaction. […] The percent of enzyme inhibition was calculated based on the percent of remaining kinase activity.
as §1, with “Kinase assays were performed using additional compounds against a panel of 4 kinases: AXL; c-Met; c-Mer; and Trk C. Each” for “Each”, “[…]” for “μM”, “4” for “3”

AXL [1] = target: T1, AXL (Homo sapiens, UniProt P30530); test: HotSpot kinase assay: AXL; type: biochemical; conditions: 100 nM compound, read-out: % Enzyme Inhibition @ 100 nM AXL
T1 sequence (P30530 26-894): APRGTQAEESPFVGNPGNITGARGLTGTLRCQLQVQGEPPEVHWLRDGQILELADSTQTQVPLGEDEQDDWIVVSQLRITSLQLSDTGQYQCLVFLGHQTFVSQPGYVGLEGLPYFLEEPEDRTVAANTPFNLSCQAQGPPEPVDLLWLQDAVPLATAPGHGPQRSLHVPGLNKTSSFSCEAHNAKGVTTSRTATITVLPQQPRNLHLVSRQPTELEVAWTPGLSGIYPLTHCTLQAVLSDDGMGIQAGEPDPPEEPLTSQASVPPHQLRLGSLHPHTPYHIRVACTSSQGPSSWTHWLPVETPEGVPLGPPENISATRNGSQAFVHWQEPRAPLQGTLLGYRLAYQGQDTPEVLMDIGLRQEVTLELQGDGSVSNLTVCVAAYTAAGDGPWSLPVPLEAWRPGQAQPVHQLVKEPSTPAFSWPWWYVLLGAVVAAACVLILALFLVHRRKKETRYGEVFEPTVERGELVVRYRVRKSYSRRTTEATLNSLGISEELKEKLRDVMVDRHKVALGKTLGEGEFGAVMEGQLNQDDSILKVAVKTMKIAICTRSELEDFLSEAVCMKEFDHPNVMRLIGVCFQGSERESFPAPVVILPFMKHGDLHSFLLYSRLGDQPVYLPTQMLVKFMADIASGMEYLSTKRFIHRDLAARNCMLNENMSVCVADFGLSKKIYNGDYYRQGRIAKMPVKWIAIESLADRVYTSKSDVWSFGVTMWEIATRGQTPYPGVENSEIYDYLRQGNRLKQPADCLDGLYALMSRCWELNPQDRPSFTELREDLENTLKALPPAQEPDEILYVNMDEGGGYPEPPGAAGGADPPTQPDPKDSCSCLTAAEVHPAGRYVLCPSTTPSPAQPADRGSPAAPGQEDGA
Description: as §1, with “Kinase assays were performed using additional compounds against a panel of 4 kinases: AXL; c-Met; c-Mer; and Trk C. Each” for “Each”, “[…]” for “μM”, “4” for “3”
as §2

c-Met = c-Met (Homo sapiens, UniProt P08581); test: HotSpot kinase assay: c-Met; type: biochemical; conditions: 100 nM compound, read-out: % Enzyme Inhibition @ 100 nM c-MET
Description: as §1, with “Kinase assays were performed using additional compounds against a panel of 4 kinases: AXL; c-Met; c-Mer; and Trk C. Each” for “Each”, “[…]” for “μM”, “4” for “3”
as §2

c-Mer = target: T2, c-Mer (Homo sapiens, UniProt Q12866); test: HotSpot kinase assay: c-Mer; type: biochemical; conditions: 100 nM compound, read-out: % Enzyme Inhibition @ 100 nM c-MER
T2 sequence (Q12866 21-999): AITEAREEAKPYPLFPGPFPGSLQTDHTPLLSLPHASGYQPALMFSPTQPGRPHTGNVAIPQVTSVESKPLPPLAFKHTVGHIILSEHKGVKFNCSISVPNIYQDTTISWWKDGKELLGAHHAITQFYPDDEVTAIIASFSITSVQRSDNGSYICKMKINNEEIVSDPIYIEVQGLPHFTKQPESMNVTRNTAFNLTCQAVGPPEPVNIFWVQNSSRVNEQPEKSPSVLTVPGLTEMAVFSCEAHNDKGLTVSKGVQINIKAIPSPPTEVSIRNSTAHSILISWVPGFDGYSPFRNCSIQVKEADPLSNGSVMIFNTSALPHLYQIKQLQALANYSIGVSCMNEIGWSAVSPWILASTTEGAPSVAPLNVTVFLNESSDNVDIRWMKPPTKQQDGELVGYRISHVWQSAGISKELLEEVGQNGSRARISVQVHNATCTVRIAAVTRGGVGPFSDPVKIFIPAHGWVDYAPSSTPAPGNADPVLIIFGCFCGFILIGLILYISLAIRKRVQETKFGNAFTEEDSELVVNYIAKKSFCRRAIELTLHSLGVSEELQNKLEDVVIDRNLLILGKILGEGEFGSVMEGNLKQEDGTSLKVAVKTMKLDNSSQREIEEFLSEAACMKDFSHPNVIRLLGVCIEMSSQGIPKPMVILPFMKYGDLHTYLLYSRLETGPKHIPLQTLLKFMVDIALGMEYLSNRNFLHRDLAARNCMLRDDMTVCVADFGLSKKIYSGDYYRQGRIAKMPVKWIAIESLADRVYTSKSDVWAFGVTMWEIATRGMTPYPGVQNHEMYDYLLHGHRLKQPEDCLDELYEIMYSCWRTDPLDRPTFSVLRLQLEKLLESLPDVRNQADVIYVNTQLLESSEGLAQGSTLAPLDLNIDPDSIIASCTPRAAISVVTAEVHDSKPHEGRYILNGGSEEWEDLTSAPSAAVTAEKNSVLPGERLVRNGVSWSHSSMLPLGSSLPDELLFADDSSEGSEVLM
Description: as §1, with “Kinase assays were performed using additional compounds against a panel of 4 kinases: AXL; c-Met; c-Mer; and Trk C. Each” for “Each”, “[…]” for “μM”, “4” for “3”
as §2

[2] = system: Akt phosphorylation induced by IGF-1R; test: Western blot analysis of Akt phosphorylation induced by IGF-1 in HT-29 cells; type: cell-based, Human; conditions: derivatives of Cpd. No. 8b
In short: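 Phospho-Akt assessed by western blot in serum-depleted (24 h) human colon carcinoma HT-29 cells. Compounds applied for 2 h at 0.1–100 (0.1, 1, 10, 100); vehicle DMSO and 10 ng/mL IGF-1 served as controls. Protein in cleared lysates measured by BCA assay.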

AXL [3] = target: T1, AXL; test: Caliper kinase assay: AXL; conditions: 0.01 μM
Description: (§4) The compound was tested at concentrations of 1.0×10^−8 and 1.0×10^−9 M in the RapidKinase192™ panel in duplicate. […] The screening was performed using the Caliper EZReader2, a 4-sipper LabChip, and ProfilerPro Kinase Selectivity Assay Kits 1 and 2. The assay measures the conversion of a fluorescent peptide substrate to a phosphorylated product. Briefly, the reaction mixture was introduced through a capillary sipper onto the microfluidic chip, where the substrate and product were electrophoretically separated and detected by laser-induced fluorescence. The time-dependent fluorescence signal indicates the extent of the reaction.
(§5) The kinases tested were AurA, AurB, AurC, AXL, FAK2, IGF1R, InsR, Mer, MET, Trk B and Trk C.
(§6) The assays were conducted using the Caliper LabChip 3000 and a 12-sipper LabChip as described above.

NTRK2(TRKB) = NTRK2(TRKB) (Homo sapiens, UniProt Q16620); test: Caliper kinase assay: NTRK2 (TRKB); conditions: Trk B, 0.01 μM
Description: as §4, §5, §6

TRKC(NTRK3) = TRKC(NTRK3) (Homo sapiens, UniProt Q16288); test: Caliper kinase assay: TRKC (NTRK3); conditions: Trk C, 0.01 μM
Description: as §4, §5, §6

PYK2 = PYK2 (Homo sapiens, UniProt Q14289); test: Caliper kinase assay: PYK2 (called FAK2); conditions: FAK2, 0.01 μM
Description: as §4, §5, §6

IGF-1R = target: T3, IGF-1R (Homo sapiens, UniProt P08069); test: In vitro IGF-1R enzymatic assay (ADP-Glo kinase assay); type: biochemical; conditions: activated IGF-1R
T3 construct: purchased Millipore 14-802
Description: (§3) IC50 values of the compounds of the invention against IGF-1R and IR were measured in vitro using an ADP-Glo kinase assay Kit (Promega). […] Kinase reactions in both assays were conducted at 30° C. for 20 min with increasing concentrations of compounds of the invention.
Additional compounds of the invention were screened against activated IGF-1R.

IR = target: T4, IR (Homo sapiens, UniProt P06213); test: In vitro IR enzymatic assay (ADP-Glo kinase assay); type: biochemical; conditions: activated IR
T4 construct: purchased Millipore 14-803
Description: as §3
Additional compounds of the invention were screened against activated IR.

Chain of c-Met (P08581 25-1390): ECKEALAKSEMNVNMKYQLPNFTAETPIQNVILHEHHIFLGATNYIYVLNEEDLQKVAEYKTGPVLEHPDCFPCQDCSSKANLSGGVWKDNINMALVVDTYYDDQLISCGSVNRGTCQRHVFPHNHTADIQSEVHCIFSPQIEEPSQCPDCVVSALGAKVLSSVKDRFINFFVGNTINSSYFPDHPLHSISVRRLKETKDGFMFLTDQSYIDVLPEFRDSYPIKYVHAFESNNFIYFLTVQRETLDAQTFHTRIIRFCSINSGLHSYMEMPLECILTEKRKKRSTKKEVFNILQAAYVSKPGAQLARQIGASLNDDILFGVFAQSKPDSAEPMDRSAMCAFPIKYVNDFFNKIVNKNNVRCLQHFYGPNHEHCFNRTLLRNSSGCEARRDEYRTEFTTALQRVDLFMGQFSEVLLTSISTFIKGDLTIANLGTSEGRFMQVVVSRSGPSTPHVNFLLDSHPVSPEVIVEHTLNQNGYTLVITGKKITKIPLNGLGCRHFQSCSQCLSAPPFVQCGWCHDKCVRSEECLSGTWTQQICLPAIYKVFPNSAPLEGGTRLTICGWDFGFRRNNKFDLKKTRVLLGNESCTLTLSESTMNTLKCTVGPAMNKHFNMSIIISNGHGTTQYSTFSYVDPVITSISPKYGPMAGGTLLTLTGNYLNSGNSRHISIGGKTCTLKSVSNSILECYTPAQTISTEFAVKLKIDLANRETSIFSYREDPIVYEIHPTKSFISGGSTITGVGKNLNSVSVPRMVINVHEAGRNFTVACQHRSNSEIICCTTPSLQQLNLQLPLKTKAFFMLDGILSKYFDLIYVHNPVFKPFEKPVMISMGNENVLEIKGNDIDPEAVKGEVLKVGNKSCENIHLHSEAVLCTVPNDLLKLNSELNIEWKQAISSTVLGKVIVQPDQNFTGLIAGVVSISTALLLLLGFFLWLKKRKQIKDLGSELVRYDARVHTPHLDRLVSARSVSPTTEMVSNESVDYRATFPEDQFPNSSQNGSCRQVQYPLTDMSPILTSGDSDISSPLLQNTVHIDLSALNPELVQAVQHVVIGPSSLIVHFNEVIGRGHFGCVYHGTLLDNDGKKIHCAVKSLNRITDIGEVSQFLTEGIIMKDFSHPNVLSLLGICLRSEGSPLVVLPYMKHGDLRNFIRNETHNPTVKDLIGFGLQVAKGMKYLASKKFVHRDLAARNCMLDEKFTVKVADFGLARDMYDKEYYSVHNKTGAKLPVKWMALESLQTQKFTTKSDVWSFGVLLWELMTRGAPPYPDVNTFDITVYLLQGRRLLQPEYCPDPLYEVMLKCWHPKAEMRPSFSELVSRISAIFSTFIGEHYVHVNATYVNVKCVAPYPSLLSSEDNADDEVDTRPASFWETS
Chain of Trk C (Q16288 32-839): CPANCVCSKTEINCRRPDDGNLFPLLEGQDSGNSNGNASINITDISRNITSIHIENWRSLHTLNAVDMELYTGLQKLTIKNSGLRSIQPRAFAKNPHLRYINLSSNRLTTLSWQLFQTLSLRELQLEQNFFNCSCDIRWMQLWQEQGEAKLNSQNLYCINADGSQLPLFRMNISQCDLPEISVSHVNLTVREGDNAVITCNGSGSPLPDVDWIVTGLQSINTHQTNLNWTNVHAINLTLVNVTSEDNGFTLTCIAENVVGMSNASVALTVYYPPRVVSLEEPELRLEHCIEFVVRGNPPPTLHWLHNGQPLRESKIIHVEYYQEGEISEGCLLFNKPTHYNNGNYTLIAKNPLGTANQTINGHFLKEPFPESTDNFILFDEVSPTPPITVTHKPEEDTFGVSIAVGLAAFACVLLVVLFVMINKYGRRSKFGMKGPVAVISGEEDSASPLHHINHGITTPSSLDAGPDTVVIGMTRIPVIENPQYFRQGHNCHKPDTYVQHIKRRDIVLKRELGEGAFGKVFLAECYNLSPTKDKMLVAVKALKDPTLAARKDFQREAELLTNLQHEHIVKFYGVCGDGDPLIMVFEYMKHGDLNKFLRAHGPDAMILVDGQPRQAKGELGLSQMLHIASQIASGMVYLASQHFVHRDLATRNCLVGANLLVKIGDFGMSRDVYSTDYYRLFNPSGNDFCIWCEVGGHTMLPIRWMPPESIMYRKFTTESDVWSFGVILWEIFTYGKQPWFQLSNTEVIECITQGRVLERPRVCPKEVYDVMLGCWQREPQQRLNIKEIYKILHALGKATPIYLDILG
Chain of PYK2 (Q14289 whole entry): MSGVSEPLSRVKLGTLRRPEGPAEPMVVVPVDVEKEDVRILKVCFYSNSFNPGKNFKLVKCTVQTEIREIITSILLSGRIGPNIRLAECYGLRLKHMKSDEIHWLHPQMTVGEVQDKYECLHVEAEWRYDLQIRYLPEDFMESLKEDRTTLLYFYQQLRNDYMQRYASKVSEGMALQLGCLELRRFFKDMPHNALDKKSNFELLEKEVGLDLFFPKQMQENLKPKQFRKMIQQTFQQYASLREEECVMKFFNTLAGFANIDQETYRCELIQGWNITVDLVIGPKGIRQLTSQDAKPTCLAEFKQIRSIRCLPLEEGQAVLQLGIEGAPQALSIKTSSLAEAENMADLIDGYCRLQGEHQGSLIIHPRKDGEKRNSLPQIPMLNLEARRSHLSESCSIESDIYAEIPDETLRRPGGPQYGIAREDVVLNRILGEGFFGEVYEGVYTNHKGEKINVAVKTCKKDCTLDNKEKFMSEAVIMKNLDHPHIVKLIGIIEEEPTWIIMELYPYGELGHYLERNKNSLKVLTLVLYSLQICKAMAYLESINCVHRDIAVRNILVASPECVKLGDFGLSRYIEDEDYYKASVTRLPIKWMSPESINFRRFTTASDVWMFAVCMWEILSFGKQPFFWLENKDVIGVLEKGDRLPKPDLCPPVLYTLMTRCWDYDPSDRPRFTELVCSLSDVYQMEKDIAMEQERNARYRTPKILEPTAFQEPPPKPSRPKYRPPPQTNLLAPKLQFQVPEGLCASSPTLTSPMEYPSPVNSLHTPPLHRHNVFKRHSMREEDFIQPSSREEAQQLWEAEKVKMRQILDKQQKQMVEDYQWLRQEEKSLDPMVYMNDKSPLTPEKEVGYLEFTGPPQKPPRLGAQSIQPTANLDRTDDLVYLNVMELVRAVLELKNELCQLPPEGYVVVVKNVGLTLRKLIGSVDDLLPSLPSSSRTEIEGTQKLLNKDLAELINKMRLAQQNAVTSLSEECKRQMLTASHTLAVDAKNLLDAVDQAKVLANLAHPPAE
Chain of TRKC(NTRK3) (Q16288 32-839): as the sequence (Q16288 32-839) above
T4 sequence (P06213 28-1382): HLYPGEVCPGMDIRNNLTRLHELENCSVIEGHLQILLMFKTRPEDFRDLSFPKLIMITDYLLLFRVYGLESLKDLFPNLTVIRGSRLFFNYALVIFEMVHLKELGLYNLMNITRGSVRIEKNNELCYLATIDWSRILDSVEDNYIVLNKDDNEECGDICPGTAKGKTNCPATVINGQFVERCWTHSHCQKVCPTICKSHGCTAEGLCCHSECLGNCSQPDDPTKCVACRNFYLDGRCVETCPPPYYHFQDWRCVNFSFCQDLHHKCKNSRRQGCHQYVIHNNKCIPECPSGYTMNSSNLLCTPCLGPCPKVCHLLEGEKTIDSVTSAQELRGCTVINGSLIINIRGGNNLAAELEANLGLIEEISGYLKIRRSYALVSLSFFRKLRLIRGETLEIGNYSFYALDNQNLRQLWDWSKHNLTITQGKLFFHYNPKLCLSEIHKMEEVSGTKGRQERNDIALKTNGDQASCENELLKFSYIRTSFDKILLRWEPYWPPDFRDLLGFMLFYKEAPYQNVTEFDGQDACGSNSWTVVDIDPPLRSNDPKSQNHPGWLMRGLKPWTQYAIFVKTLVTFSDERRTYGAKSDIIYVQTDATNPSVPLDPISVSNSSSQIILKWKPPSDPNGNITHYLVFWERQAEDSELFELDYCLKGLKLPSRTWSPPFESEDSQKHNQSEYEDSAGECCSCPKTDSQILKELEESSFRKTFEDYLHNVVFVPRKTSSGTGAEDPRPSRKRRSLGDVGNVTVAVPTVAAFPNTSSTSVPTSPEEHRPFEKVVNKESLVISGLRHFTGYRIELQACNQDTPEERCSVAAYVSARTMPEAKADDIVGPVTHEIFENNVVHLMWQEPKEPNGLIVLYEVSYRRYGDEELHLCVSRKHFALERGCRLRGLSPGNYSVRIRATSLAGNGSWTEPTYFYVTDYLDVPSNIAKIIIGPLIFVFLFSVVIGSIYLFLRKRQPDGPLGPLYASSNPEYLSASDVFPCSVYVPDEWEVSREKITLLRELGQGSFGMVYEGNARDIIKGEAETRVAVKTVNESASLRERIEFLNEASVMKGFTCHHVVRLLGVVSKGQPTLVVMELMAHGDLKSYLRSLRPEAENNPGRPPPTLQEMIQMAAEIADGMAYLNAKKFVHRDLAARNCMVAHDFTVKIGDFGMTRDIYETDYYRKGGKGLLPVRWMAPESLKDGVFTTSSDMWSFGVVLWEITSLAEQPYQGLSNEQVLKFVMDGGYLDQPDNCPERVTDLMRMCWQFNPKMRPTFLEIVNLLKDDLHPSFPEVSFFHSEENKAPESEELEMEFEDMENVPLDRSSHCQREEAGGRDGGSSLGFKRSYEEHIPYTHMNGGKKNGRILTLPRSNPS

Structure (SMILES) | inhibition at 0.1 µM (Trk C) | inhibition at 0.1 µM (AXL [1]) | inhibition at 0.1 µM (c-Met) | inhibition at 0.1 µM (c-Mer) | inhibition of kinase (AXL [3]) | inhibition of kinase (NTRK2(TRKB)) | inhibition of kinase (TRKC(NTRK3)) | inhibition of kinase (PYK2) | IC50 (IGF-1R) | IC50 (IR) | pAKT relative to 0.1 nM compound ([2]; 1 nM) | pAKT relative to 0.1 nM compound ([2]; 10 nM) | pAKT relative to 0.1 nM compound ([2]; 100 nM)
CC(C)c1cc(Nc2nc(N3CCCC3C(=O)N3CCCCC3)nc3c2CCC3)n[nH]1 (stereo not shown) [Compound 73b, (1-(4-(5-isopropyl-1H-pyrazol-3-ylamino)-6,7-dihydro-5H-cyclopenta[d]pyrimidin-2-yl)pyrrolidin2--yl)(piperidin-1-yl)methanone] | > 60% | < 39% | < 39% | < 39% |  |  |  |  | 1400 nM | 1300 nM |  |  | 
O=C(Nc1ccc(F)nc1)C1CCCN1c1nc2c(c(Nc3ccccn3)n1)CCC2 (stereo not shown) [Compound 102a, N-(6-fluoropyridin-3-yl)-1-(4-(pyridin-2-ylamino)-6,7-dihydro-5H-cyclopenta[d]pyrimidin-2-yl)pyrrolidine-2-carboxamide] | < 39% | < 39% | < 39% | < 39% |  |  |  |  |  |  |  |  | 
O=C(Nc1nccs1)C1CCCN1c1nc2c(c(Nc3ncccn3)n1)CCC2 (stereo not shown) [Compound 105a, 1-(4-(pyrimidin-2-ylamino)-6,7-dihydro-5H-cyclopenta[d]pyrimidin-2-yl)-N-(thiazol-2-yl)pyrrolidine-2-carboxamide] | < 39% | < 39% | < 39% | < 39% |  |  |  |  |  |  |  |  | 

More lines, main results first:

inhibition at 0.1 µM (Trk C) | inhibition at 0.1 µM (AXL [1]) | inhibition at 0.1 µM (c-Met) | inhibition at 0.1 µM (c-Mer) | inhibition of kinase (AXL [3]) | inhibition of kinase (NTRK2(TRKB)) | inhibition of kinase (TRKC(NTRK3)) | inhibition of kinase (PYK2) | IC50 (IGF-1R) | IC50 (IR) | Structure (SMILES) | pAKT relative to 0.1 nM compound ([2]; 1 nM) | pAKT relative to 0.1 nM compound ([2]; 10 nM) | pAKT relative to 0.1 nM compound ([2]; 100 nM)
< 39% | < 39% | < 39% | < 39% |  |  |  |  |  |  | O=C(Nc1ccc(F)nc1)C1CCCN1c1nc2c(c(Nc3ccc(=O)[nH]n3)n1)CCC2 (stereo not shown) [Compound 101b, N-(6-fluoropyridin-3-yl)-1-(4-(6-oxo-1,6-dihydropyridazin-3-ylamino)-6,7-dihydro-5H-cyclopenta[d]pyrimidin-2-yl)pyrrolidine-2-carboxamide] |  |  | 
 |  |  |  | strongly inhibited | strongly inhibited | strongly inhibited | strongly inhibited |  |  | O=C(Nc1ccc(F)nc1)C1CC(O)CN1c1nc2c(c(Nc3cc(C4CC4)[nH]n3)n1)CCC2 (racemic) [Compound 10d, 1-(4-(5-cyclopropyl-1H-pyrazol-3-ylamino)-6,7-dihydro-5H-cyclopenta[d]pyrimidin-2-yl)-N-(6-fluoropyridin-3-yl)-4-hydroxypyrrolidine-2-carboxamide] | 0.84 | 0.23 | 0.01
